Reference: publication PMC11855827, “High-Throughput Screening of Five Compound Libraries for Anthelmintic Activity and Toxicity Leads to the Discovery of Two Flavonoid Compounds” (International Journal of Molecular Sciences, 2025)
Like-named read-outs stand apart in the source and are kept apart here.

Test system: C. elegans
[1] = Table S2, C. elegans SS assay, 110 μM, 0 h, averages of 4 data points
[2] = Table S2, C. elegans SS assay, 110 μM, 24 h, averages of 4 data points

## CC1(C)CC[C@]2(C(=O)O)CC[C@]3(C)C(=CC[C@@H]4[C@@]5(C)CC[C@H](O[C@@H]6OC[C@H](O)[C@H](O)[C@H]6O)[C@@](C)(CO)[C@@H]5CC[C@]43C)[C@@H]2C1 [Cauloside A]
[1]
  Percentage of motility inhibition 0 h: 12%
[2]
  Percentage of motility inhibition 24 h: 24%

## CC(C)(O)CCc1c(O)cc(O)c2c(=O)c(O)c(-c3ccc(O)cc3)oc12 [Noricaritin]
[1]
  Percentage of motility inhibition 0 h: 42%
[2]
  Percentage of motility inhibition 24 h: 5%

## COC[C@]12CN(C)C3[C@@H]4[C@H](OC)[C@H]1[C@@]3([C@@H](OC)C[C@H]2O)[C@@H]1C[C@@]2(O)[C@H](OC(=O)c3ccccc3)[C@@H]1[C@]4(O)[C@@H](O)[C@@H]2OC [Benzoylmesaconine]
[1]
  Percentage of motility inhibition 0 h: 1%
[2]
  Percentage of motility inhibition 24 h: 0%

## CC(=O)O.CC(=O)O.CC[C@H](C)C[C@H](C)CCCCCCCCC(=O)N[C@H]1C[C@@H](O)[C@@H](NCCN)NC(=O)[C@@H]2[C@@H](O)CCN2C(=O)[C@H]([C@H](O)CCN)NC(=O)[C@H]([C@H](O)[C@@H](O)c2ccc(O)cc2)NC(=O)[C@@H]2C[C@@H](O)CN2C(=O)[C@H]([C@@H](C)O)NC1=O [Caspofungin (Acetate)]
[1]
  Percentage of motility inhibition 0 h: 27%
[2]
  Percentage of motility inhibition 24 h: 4%

## CC(C)=CCC[C@@](C)(O)[C@H]1CC[C@]2(C)[C@@H]1[C@H](O)C[C@@H]1[C@@]3(C)CC[C@H](O)C(C)(C)[C@@H]3CC[C@]12C [(20R)-Protopanaxadiol]
[1]
  Percentage of motility inhibition 0 h: 0%
[2]
  Percentage of motility inhibition 24 h: 43%

## CCCCCCCCCCCCCCCCCCOC(=O)[C@@]1(C)CC[C@]2(C)CC[C@]3(C)C(=CC(=O)[C@@H]4[C@@]5(C)CC[C@H](O)C(C)(C)[C@@H]5CC[C@]43C)[C@@H]2C1 [Stearyl glycyrrhetinate]
[1]
  Percentage of motility inhibition 0 h: 0%
[2]
  Percentage of motility inhibition 24 h: 0%

## C[C@@H](CO)[C@@H]1CC[C@@]2(CC[C@]3(C)[C@H](CC[C@@H]4[C@@]5(C)CC[C@H](O[C@@H]6O[C@H](CO)[C@@H](O)[C@H](O)[C@H]6O[C@@H]6O[C@H](CO)[C@@H](O)[C@H](O)[C@H]6O)[C@@](C)(CO[C@@H]6O[C@H](CO)[C@@H](O)[C@H](O)[C@H]6O)[C@@H]5CC[C@]43C)[C@H]2O)CO1 [Hosenkoside A]
[1]
  Percentage of motility inhibition 0 h: 15%
[2]
  Percentage of motility inhibition 24 h: 19%

## CC(C)(CO)[C@@H](O)C(=O)NCCC(=O)[O-].[Na+] [D-Pantothenic acid (sodium)]
[1]
  Percentage of motility inhibition 0 h: 1%
[2]
  Percentage of motility inhibition 24 h: 4%

## CC1(COC(=O)c2ccccc2)CCC2(C)CCC3(C)C4=CCC5C(C)(CCC(OC(=O)c6ccccc6)C5(C)C)C4=CCC3(C)C2C1 (stereo not drawn) [3,29-O-Dibenzoyloxykarounidiol]
[1]
  Percentage of motility inhibition 0 h: 15%
[2]
  Percentage of motility inhibition 24 h: 9%

## C[C@H]1[C@H](C)CC[C@]2(C(=O)O)CC[C@]3(C)C(=CC[C@@H]4[C@@]5(C)CC[C@H](O)C(C)(C)[C@@H]5CC[C@]43C)[C@H]12 [3-Epiursolic Acid]
[1]
  Percentage of motility inhibition 0 h: 3%
[2]
  Percentage of motility inhibition 24 h: 18%

## CC[C@@H](C(=O)[C@@H](C)[C@@H](O)[C@H](C)CCc1ccc(C)c(O)c1C(=O)[O-])[C@H]1O[C@](CC)([C@H]2CC[C@](O)(CC)[C@H](C)O2)C[C@@H]1C.[Na+] [Lasalocid (sodium)]
[1]
  Percentage of motility inhibition 0 h: 15%
[2]
  Percentage of motility inhibition 24 h: 4%

## CC(C)=C[C@H]1C[C@](C)(O)[C@@H]2[C@H]3CC[C@@H]4[C@@]5(C)CC[C@H](O[C@@H]6OC[C@H](O)[C@H](O[C@@H]7O[C@H](CO[C@@H]8O[C@H](CO)[C@@H](O)[C@H](O)[C@H]8O)[C@@H](O)[C@H](O)[C@H]7O[C@@H]7OC[C@@H](O)[C@H](O)[C@H]7O)[C@H]6O[C@@H]6O[C@@H](C)[C@H](O)[C@@H](O)[C@H]6O)C(C)(C)[C@@H]5CC[C@@]4(C)[C@@]34CO[C@@]2(C4)O1 [Jujuboside A]
110 µM
  Percentage of motility inhibition 0 h: 0%
  Percentage of motility inhibition 24 h: 0%

## CC(=O)O[C@@H]1C[C@@]23C[C@@]24CC[C@H](O[C@@H]2OC[C@@H](O)[C@H](O)[C@H]2O)C(C)(C)[C@@H]4CC[C@H]3[C@]2(C)C[C@@H]3O[C@@]4(C[C@@H](C)[C@@H]3[C@@]12C)OC[C@@]1(C)O[C@@H]41 [23-epi-26-Deoxyactein]
[1]
  Percentage of motility inhibition 0 h: 0%
[2]
  Percentage of motility inhibition 24 h: 5%

## COc1cc(C)c2c(=O)c(-c3ccccc3)coc2c1 [5‐Methyl‐7‐methoxyisoflavone]
[1]
  Percentage of motility inhibition 0 h: 16%
[2]
  Percentage of motility inhibition 24 h: 0%

## CC1=C[C@]23C(=O)[C@@H](C=C(COC(=O)c4ccccc4)[C@@H](O)[C@]2(O)[C@H]1OC(=O)c1ccccc1)[C@H]1[C@@H](C[C@H]3C)C1(C)C [Ingenol 3,20-dibenzoate]
[1]
  Percentage of motility inhibition 0 h: 0%
[2]
  Percentage of motility inhibition 24 h: 0%

## C/C1=C\CC/C(C)=C/CC(C)(C)/C=C/C1 [α-Humulene]
[1]
  Percentage of motility inhibition 0 h: 11%
[2]
  Percentage of motility inhibition 24 h: 55%

## C/C1=C\[C@@H]2[C@H](C/C=C(/CO)[C@@H](O)[C@@H]3[C@@H](O)[C@@H](C)C[C@]3(O)C1=O)C2(C)C [17-Hydroxyisolathyrol]
[1]
  Percentage of motility inhibition 0 h: 13%
[2]
  Percentage of motility inhibition 24 h: 29%

## CCNCc1nc2c(N)nc3ccccc3c2n1CC(C)(C)O.O=C(O)C(F)(F)F [Gardiquimod trifluoroacetate]
[1]
  Percentage of motility inhibition 0 h: 33%
[2]
  Percentage of motility inhibition 24 h: 0%

## O=c1c(O)c(-c2ccc(O)cc2)oc2cc(O)ccc12 [3,7,4'‐Trihydroxyflavone]
[1]
  Percentage of motility inhibition 0 h: 0%
[2]
  Percentage of motility inhibition 24 h: 16%

## NC(=O)c1ncn([C@@H]2O[C@H](CO)[C@@H](O)[C@H]2O)c1N.O=P(O)(O)O [AICAR (phosphate)]
[1]
  Percentage of motility inhibition 0 h: 20%
[2]
  Percentage of motility inhibition 24 h: 6%

## CN1c2ccccc2C(=O)N2CCc3c([nH]c4ccccc34)[C@@H]21 (racemic) [(±)‐Evodiamine]
[1]
  Percentage of motility inhibition 0 h: 0%
[2]
  Percentage of motility inhibition 24 h: 12%

## C=C[C@]1(C)C[C@@H](OC(=O)CSC(C)(C)CNC(=O)[C@H](N)C(C)C)[C@]2(C)[C@H](C)CC[C@]3(CCC(=O)[C@H]32)[C@@H](C)[C@@H]1O.Cl [Valnemulin (Hydrochloride)]
[1]
  Percentage of motility inhibition 0 h: 29%
[2]
  Percentage of motility inhibition 24 h: 12%

## C[C@]1(O)C[C@@H](O)[C@@H]2C(C(=O)O)=CO[C@@H](O[C@@H]3O[C@H](CO)[C@@H](O)[C@H](O)[C@H]3O)[C@@H]21 [Shanziside]
[1]
  Percentage of motility inhibition 0 h: 1%
[2]
  Percentage of motility inhibition 24 h: 4%

## CCN1C[C@]2(C)CC[C@H](OC)C34C5C[C@@H]6CC[C@@](O)(C5C(=O)O6)C(C13)[C@@H](OC(=O)c1ccccc1)[C@@H]42 [6‐Benzoylheteratisine]
[1]
  Percentage of motility inhibition 0 h: 16%
[2]
  Percentage of motility inhibition 24 h: 23%

## CC(C)=CCc1c(-c2ccc(O)cc2O)oc2c(CC=C(C)C)c(O)cc(O)c2c1=O [Mulberrin]
[1]
  Percentage of motility inhibition 0 h: 32%
[2]
  Percentage of motility inhibition 24 h: 5%

## CC(=O)c1ccccc1O [2'‐Hydroxyacetophenone]
[1]
  Percentage of motility inhibition 0 h: 0%
[2]
  Percentage of motility inhibition 24 h: 1%

## COc1cc2c(cc1O)CC[n+]1cc3c(OC)c(OC)ccc3cc1-2.[OH-] [Jatrorrhizine (hydroxide)]
[1]
  Percentage of motility inhibition 0 h: 8%
[2]
  Percentage of motility inhibition 24 h: 5%

## C[C@@H]1O[C@@H](OC[C@H]2O[C@@H](Oc3c(-c4ccc(O)c(O)c4)oc4cc(O)cc(O)c4c3=O)[C@H](O)[C@@H](O)[C@@H]2O)[C@H](O)[C@H](O)[C@H]1O.O.O.O [Rutin (trihydrate)]
[1]
  Percentage of motility inhibition 0 h: 2%
[2]
  Percentage of motility inhibition 24 h: 9%

## Valepotriate
[1]
  Percentage of motility inhibition 0 h: 0%
[2]
  Percentage of motility inhibition 24 h: 7%

## Nc1nc(=O)c2c([nH]1)NCC(CNc1ccc(C(=O)N[C@@H](CCC(=O)O)C(=O)O)cc1)N2C=O (mixture of isomers) [Folinic acid]
[1]
  Percentage of motility inhibition 0 h: 11%
[2]
  Percentage of motility inhibition 24 h: 20%

## CC1(C)S[C@@H]2[C@H](NC(=O)Cc3ccccc3)C(=O)N2[C@H]1C(=O)[O-].[K+] [Penicillin G (potassium)]
[1]
  Percentage of motility inhibition 0 h: 14%
[2]
  Percentage of motility inhibition 24 h: 8%

## CC(=O)O[C@@H]1[C@@H](O)[C@H](O[C@H]2CC[C@]34C[C@]35CC[C@]3(C)[C@@H]([C@@]6(C)CC[C@@H](C(C)(C)O)O6)[C@@H](O)C[C@@]3(C)[C@@H]5C[C@H](O[C@@H]3O[C@H](CO)[C@@H](O)[C@H](O)[C@H]3O)[C@H]4C2(C)C)OC[C@H]1O [Isoastragaloside II]
[1]
  Percentage of motility inhibition 0 h: 0%
[2]
  Percentage of motility inhibition 24 h: 9%

## C[C@@]12C=Cc3occc3[C@H]1CC[C@@]13C[C@@H](CC[C@H]12)[C@@](O)(CO)C3 [Kahweol]
[1]
  Percentage of motility inhibition 0 h: 11%
[2]
  Percentage of motility inhibition 24 h: 19%

## CS(=O)(=O)O.C[C@H]1COc2c(C3(N)CC3)c(F)cc3c(=O)c(C(=O)O)cn1c23 [Pazufloxacin (mesylate)]
[1]
  Percentage of motility inhibition 0 h: 28%
[2]
  Percentage of motility inhibition 24 h: 2%

## C=C(CC[C@@H](C(=O)O)[C@H]1[C@H](O)C[C@@]2(C)C3=CC[C@H]4C(C)(C)C(=O)CC[C@]4(C)C3=CC[C@]12C)C(C)C [Polyporenic acid C]
[1]
  Percentage of motility inhibition 0 h: 30%
[2]
  Percentage of motility inhibition 24 h: 12%

## O=Cc1c[nH]c2ccccc12 [Indole‐3‐carboxaldehyde]
[1]
  Percentage of motility inhibition 0 h: 0%
[2]
  Percentage of motility inhibition 24 h: 17%

## CN1CC[C@]23c4ccccc4N[C@H]1[C@]21CCN(C)[C@H]3Nc2ccccc21 [Calycanthine]
[1]
  Percentage of motility inhibition 0 h: 0%
[2]
  Percentage of motility inhibition 24 h: 0%

## CC(C)=CCC[C@@](C)(O)[C@H]1CC[C@]2(C)[C@@H]1[C@H](O)C[C@@H]1[C@@]3(C)CC[C@H](O)C(C)(C)[C@@H]3[C@@H](O[C@@H]3O[C@H](CO)[C@@H](O)[C@H](O)[C@H]3O)C[C@]12C [(20R)-Ginsenoside Rh1]
[1]
  Percentage of motility inhibition 0 h: 13%
[2]
  Percentage of motility inhibition 24 h: 5%

## CC[C@H]1OC(=O)C[C@@H](O)[C@H](C)[C@@H](O[C@@H]2O[C@H](C)[C@@H](O[C@H]3C[C@@](C)(O)[C@@H](O)[C@H](C)O3)[C@H](N(C)C)[C@H]2O)[C@@H](CC=O)C[C@@H](C)C(=O)/C=C/C(C)=C/[C@@H]1CO[C@@H]1O[C@H](C)[C@@H](O)[C@@H](OC)[C@H]1OC.O=C(O)C(O)C(O)C(=O)O [Tylosin (tartr ate)]
[1]
  Percentage of motility inhibition 0 h: 0%
[2]
  Percentage of motility inhibition 24 h: 1%
